Results on 52 compounds are retold here after US20050288299A1, “Azaindole derivatives as inhibitors of p38 kinase” (priority 2002, published 2005).

For the assay, the target named is p38α kinase (Homo sapiens, UniProt Q16539). The assay can be described thus: p38α Flash Plate Assay (p38 kinase inhibition). The class given is biochemical. Conditions: in vitro; 150 μM ATP, 0.05 mM biotinylated peptide substrate, 5 nM enzyme, 60 minute incubation at 30° Celsius; read-out: P38 α-FLASHPLATE IC50. The procedure:
Assay for p38 Kinase Inhibition—p38α Flash Plate Assay
The compounds to be tested were solubilized in DMSO and diluted with water to the desired concentrations. The p38 kinase was diluted to 20 nM into a buffer containing 20 mM MOPS, pH 7.0, 25 mM beta-glycerol phosphate, 2 mg/ml gelatin, 0.5 mM EGTA (ethylene-bis-(oxyethylenenitrilo)-tetraacetic acid), and 4 mM dithiothreitol (DTT).
The reaction was carried out by mixing 20 μl test compound with 10 μl of a substrate cocktail containing 0.2 mM biotinylated peptide substrate and 0.6 mM ATP (+100 μCi/ml gamma-^33P-ATP) in a 5× assay buffer. The reaction was initiated by the addition of 10 μl of p38 kinase. Final assay conditions were 25 mM MOPS, pH 7.0, 26.25 mM beta-glycerol phosphate, 80 mM KCl, 22 mM MgCl2, 3 mM MgSO4, 1 mg/ml gelatin, 0.625 mM EGTA, 1 mM DTT, 0.05 mM peptide substrate, 150 μM ATP, and 5 nM enzyme. After a 60 minute incubation at 30° Celsius, the reaction was stopped by the addition of 10 μl per reaction of 0.25 M phosphoric acid.
A portion of the reaction was transferred to a streptavidin-coated Flash Plate (Perkin Elmer); the Flash Plate was incubated for 60 minutes at 30° Celsius and then washed 3× with PBS containing 0.01% Tween-20.
Counts incorporated are determined on a scintillation counter. Relative enzyme activity was calculated by subtracting background counts (counts measured in the absence of enzyme) from each result, and comparing the resulting counts to those obtained in the absence of inhibitor. IC50 values were determined with curve-fitting plots available with common software packages. The IC50 was expressed as the concentration of compound which inhibited the enzyme activity by 50%.

Sequence of p38α kinase (Q16539 whole entry): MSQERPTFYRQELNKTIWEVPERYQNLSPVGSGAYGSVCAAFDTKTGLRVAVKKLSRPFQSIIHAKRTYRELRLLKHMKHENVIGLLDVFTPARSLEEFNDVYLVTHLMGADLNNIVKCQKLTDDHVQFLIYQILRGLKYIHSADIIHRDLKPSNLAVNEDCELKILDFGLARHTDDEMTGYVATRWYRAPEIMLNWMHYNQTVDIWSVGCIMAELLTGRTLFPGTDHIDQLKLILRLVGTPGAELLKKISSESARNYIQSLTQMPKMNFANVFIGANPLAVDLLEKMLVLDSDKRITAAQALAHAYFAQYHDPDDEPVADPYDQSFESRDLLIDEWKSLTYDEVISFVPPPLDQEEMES

In the case of `COc1nc2[nH]cc(C(=O)C(=O)N3CCCC3)c2cc1C(=O)N1C[C@H](C)N(Cc2ccc(F)cc2)C[C@H]1C` [No. 5, 1-{5-[4-(4-Fluoro-benzyl)-2R,5S-dimethyl-piperazine-1-carbonyl]-6-methoxy-1H-pyrrolo[2,3-b]pyridin-3-yl}-2-pyrrolidin-1-yl-ethane-1,2-dione], the 50% inhibitory concentration (IC50) (in general, the concentration that gives 50% inhibition) came to 30 nM. Next, `COc1nc2[nH]c(C)c(C(=O)C(=O)N3CCCC3)c2cc1C(=O)N1CCC(Cc2ccc(F)cc2)CC1` [compound 15]: 38 nM; `CCNC(=O)C(=O)c1c[nH]c2nc(OC)c(C(=O)N3CCC(Cc4ccc(F)cc4)CC3)cc12` [compound 16]: 39 nM.

For the compound `COc1nc2[nH]cc(C(=O)C(N)=O)c2cc1C(=O)N1CCC(Cc2ccc(F)cc2)CC1` [compound 17], the IC50 was determined as 57 nM. Take `CNC(=O)C(=O)c1c[nH]c2nc(OC)c(C(=O)N3C[C@H](C)N(Cc4ccc(F)cc4)C[C@H]3C)cc12` [compound 18]: the IC50 was found to be 20 nM.

For the compound `COc1nc2[nH]cc(C(=O)C(=O)N(C)C)c2cc1C(=O)N1C[C@H](C)N(Cc2ccc(F)cc2)C[C@H]1C` [compound 19], the IC50 worked out at 8.2 nM. As to `CCN(C)C(=O)C(=O)c1c[nH]c2nc(OC)c(C(=O)N3C[C@H](C)N(Cc4ccc(F)cc4)C[C@H]3C)cc12` [compound 20], the IC50 amounted to 12 nM. On to `COc1nc2[nH]cc(C(=O)C(=O)N3CC[C@@H](O)C3)c2cc1C(=O)N1C[C@H](C)N(Cc2ccc(F)cc2)C[C@H]1C` [compound 21], for which the IC50 is 10 nM. Next, `COc1nc2[nH]cc(C(=O)C(=O)N(C)C)c2cc1C(=O)N1C[C@H](C)N(C(c2ccccc2)c2ccccc2)C[C@H]1C` [compound 22]: 70 nM; `COc1nc2[nH]cc(C(=O)C(=O)N3CCCC3)c2cc1C(=O)N1C[C@H](C)N(C(c2ccccc2)c2ccccc2)C[C@H]1C` [compound 23]: 120 nM. Then `CNC(=O)C(=O)c1c[nH]c2nc(OC)c(C(=O)N3C[C@H](C)N(C(c4ccccc4)c4ccccc4)C[C@H]3C)cc12` [compound 24], with 42 nM; and `COc1nc2[nH]cc(C(=O)C(=O)NC3CCCC3)c2cc1C(=O)N1C[C@H](C)N(C(c2ccccc2)c2ccccc2)C[C@H]1C` [compound 25], with 130 nM; and `COc1nc2[nH]cc(C(=O)C(F)(F)F)c2cc1C(=O)N1CCC(Cc2ccc(F)cc2)CC1` [compound 26], with 95 nM.

Consider `COc1nc2[nH]cc(C(=O)C(N)=O)c2cc1C(=O)N1C[C@H](C)N(Cc2ccc(F)cc2)C[C@H]1C` [compound 30], for which the IC50 was 10 nM.

Consider `COc1nc2[nH]cc(C(=O)C(N)=O)c2cc1C(=O)N1CCN(Cc2ccc(F)cc2)C[C@H]1C` [compound 31], for which the IC50 was 100 nM. Regarding `CNC(=O)C(=O)c1c[nH]c2nc(OC)c(C(=O)N3CCN([C@H](C)c4ccc(F)cc4)C[C@H]3C)cc12` [compound 32], the IC50 turned out to be 30 nM. Then `COc1nc2[nH]cc(C(=O)C(=O)O)c2cc1C(=O)N1CCC(Cc2ccc(F)cc2)CC1` [compound 33], with 15 nM; and `CCOc1nc2[nH]cc(C(=O)C(=O)NC)c2cc1C(=O)N1C[C@H](C)N(Cc2ccc(F)cc2)C[C@H]1C` [compound 34], with 30 nM. As to `CCOc1nc2[nH]cc(C(=O)C(N)=O)c2cc1C(=O)N1C[C@H](C)N(Cc2ccc(F)cc2)C[C@H]1C` [compound 35], the IC50 was found to be 20 nM.

Regarding `CCOc1nc2[nH]cc(C(=O)C(=O)NC)c2cc1C(=O)N1CCC(Cc2ccc(F)cc2)CC1` [compound 36], the IC50 turned out to be 64 nM. Next, `CCOc1nc2[nH]cc(C(=O)C(N)=O)c2cc1C(=O)N1CCC(Cc2ccc(F)cc2)CC1` [compound 37]: 67 nM. Take `COc1ccc(Cn2ccc3cc(C(=O)N4C[C@H](C)N(Cc5ccc(F)cc5)C[C@H]4C)c(OC)nc32)cc1` [compound 38]: the concentration for half-maximal inhibition (IC50) came out at 1500 nM. Turning to `CNC(=O)C(=O)c1cn(Cc2ccc(OC)cc2)c2nc(OC)c(C(=O)N3C[C@H](C)N(Cc4ccc(F)cc4)C[C@H]3C)cc12` [compound 39], the IC50 is 610 nM.

Regarding `Cc1nc2[nH]ccc2cc1C(=O)N1C[C@H](C)N(Cc2ccc(F)cc2)C[C@H]1C` [compound 40], the IC50 is 420 nM.

As for `COc1nc2c(cc1C(=O)N1C[C@H](C)N(Cc3ccc(F)cc3)C[C@H]1C)c(C(=O)C(N)=O)cn2C` [compound 41], the concentration for half-maximal inhibition (IC50) came out at 20 nM.

Regarding `CNC(=O)C(=O)c1cn(C)c2nc(OC)c(C(=O)N3C[C@H](C)N(Cc4ccc(F)cc4)C[C@H]3C)cc12` [compound 42], the IC50 was determined as 20 nM. For the compound `COc1nc2c(cc1C(=O)N1C[C@H](C)N(Cc3ccc(F)cc3)C[C@H]1C)c(C(=O)C(=O)N(C)C)cn2C` [compound 43], the IC50 was 10 nM. Turning to `CCNC(=O)C(=O)c1cn(C)c2nc(OC)c(C(=O)N3C[C@H](C)N(Cc4ccc(F)cc4)C[C@H]3C)cc12` [compound 44], the IC50 came out at 70 nM. Next, `COc1nc2c(cc1C(=O)N1C[C@H](C)N(Cc3ccc(F)cc3)C[C@H]1C)c(C(=O)C(=O)N(C)OC)cn2C` [compound 45]: 20 nM; `COc1nc2c(cc1C(=O)N1C[C@H](C)N(Cc3ccc(F)cc3)C[C@H]1C)c(C(=O)C(=O)N1CCCC1)cn2C` [compound 46]: 50 nM. `CCNC(=O)C(=O)c1c[nH]c2nc(OC)c(C(=O)N3C[C@H](C)N(Cc4ccc(F)cc4)C[C@H]3C)cc12` [compound 47]: the IC50 came to 20 nM.

For `COc1nc2[nH]cc(C(=O)C(=O)NC(C)C)c2cc1C(=O)N1C[C@H](C)N(Cc2ccc(F)cc2)C[C@H]1C` [compound 48], the IC50 was 50 nM.

Take `COc1nc2c(cc1C(=O)N1C[C@H](C)N(Cc3ccc(F)cc3)C[C@H]1C)c(C(=O)C(=O)NC(C)C)cn2C` [compound 49]: the IC50 worked out at 60 nM. Take `CONC(=O)C(=O)c1cn(C)c2nc(OC)c(C(=O)N3C[C@H](C)N(Cc4ccc(F)cc4)C[C@H]3C)cc12` [compound 50]: the IC50 was 40 nM.

In the case of `CCNC(=O)C(=O)c1cn(COC)c2nc(OC)c(C(=O)N3C[C@H](C)N(Cc4ccc(F)cc4)C[C@H]3C)cc12` [compound 51], the IC50 stood at 60 nM.

Regarding `COCn1cc(C(=O)C(N)=O)c2cc(C(=O)N3C[C@H](C)N(Cc4ccc(F)cc4)C[C@H]3C)c(OC)nc21` [compound 53], the IC50 turned out to be 30 nM. Then `CNC(=O)C(=O)c1cn(COC)c2nc(OC)c(C(=O)N3C[C@H](C)N(Cc4ccc(F)cc4)C[C@H]3C)cc12` [compound 54], with 50 nM. Consider `COCn1cc(C(=O)C(=O)N(C)C)c2cc(C(=O)N3C[C@H](C)N(Cc4ccc(F)cc4)C[C@H]3C)c(OC)nc21` [compound 55], for which the half-inhibitory concentration (IC50) was found to be 20 nM. Then `COCn1cc(C(=O)C(=O)N2CCCC2)c2cc(C(=O)N3C[C@H](C)N(Cc4ccc(F)cc4)C[C@H]3C)c(OC)nc21` [compound 56], with 40 nM; and `CCNC(=O)C(=O)c1c[nH]c2nc(OCC)c(C(=O)N3C[C@H](C)N(Cc4ccc(F)cc4)C[C@H]3C)cc12` [compound 57], with 30 nM; and `CCOc1nc2[nH]cc(C(=O)C(=O)NC(C)C)c2cc1C(=O)N1C[C@H](C)N(Cc2ccc(F)cc2)C[C@H]1C` [compound 58], with 50 nM. For the compound `CCOc1nc2[nH]cc(C(=O)C(=O)N3CCCC3)c2cc1C(=O)N1C[C@H](C)N(Cc2ccc(F)cc2)C[C@H]1C` [compound 59], the IC50 turned out to be 30 nM.

For the compound `Cc1nc2c(ccn2C)cc1C(=O)N1C[C@H](C)N(Cc2ccc(F)cc2)C[C@H]1C` [compound 60], the IC50 was determined as 160 nM. Then `CNC(=O)C(=O)c1cn(C)c2nc(C)c(C(=O)N3C[C@H](C)N(Cc4ccc(F)cc4)C[C@H]3C)cc12` [compound 61], with 90 nM; and `CNC(=O)C(=O)c1c[nH]c2nc(C)c(C(=O)N3C[C@H](C)N(Cc4ccc(F)cc4)C[C@H]3C)cc12` [compound 62], with 70 nM; and `Cc1nc2[nH]cc(C(=O)C(=O)N(C)C)c2cc1C(=O)N1C[C@H](C)N(Cc2ccc(F)cc2)C[C@H]1C` [compound 63], with 30 nM. In the case of `CCNC(=O)C(=O)c1c[nH]c2nc(C)c(C(=O)N3C[C@H](C)N(Cc4ccc(F)cc4)C[C@H]3C)cc12` [compound 64], the IC50 turned out to be 80 nM. On to `Cc1nc2[nH]cc(C(=O)C(=O)N3CCCC3)c2cc1C(=O)N1C[C@H](C)N(Cc2ccc(F)cc2)C[C@H]1C` [compound 65], for which the IC50 amounted to 80 nM.

As to `Cc1nc2[nH]cc(C(=O)C(N)=O)c2cc1C(=O)N1C[C@H](C)N(Cc2ccc(F)cc2)C[C@H]1C` [compound 66], the IC50 was 80 nM. Then `C[C@@H]1CN(Cc2ccc(F)cc2)[C@@H](C)CN1C(=O)c1ccc2[nH]ccc2n1` [compound 67], with 750 nM; and `COC(=O)C(=O)c1c[nH]c2ccc(C(=O)N3C[C@H](C)N(Cc4ccc(F)cc4)C[C@H]3C)nc12` [compound 68], with 760 nM. Then `C[C@@H]1CN(Cc2ccc(F)cc2)[C@@H](C)CN1C(=O)c1ccc2[nH]cc(C(=O)C(=O)O)c2n1` [compound 69], with 700 nM.
